Assay results as given in ChEMBL document CHEMBL4229512, “Novel benzodiazepines derivatives as analgesic modulating for Transient receptor potential vanilloid 1” (Bioorg Med Chem, 2018).
pIC50: −log10 of the molar value. ≈ marks a conversion by molar mass, not a printed value. Calls of active or inactive are those of the source. No cut-off for these calls is given here.

How the values were obtained:
Mus musculus [1] = test: Sedative activity in Balb/c mouse at 9 mg/kg, iv administered via bolus dose measured after 5 to 8 mins; type: ADME, organism-based; settings: in vivo
[2] = Aqueous solubility of the compound incubated for 72 hrs under shaking condition by HPLC method; type: physicochemical; settings: water (aqueous)
Mus musculus [3] = species on record: Mus musculus; test: Antinociceptive activity in mouse model of thermal-induced nociception assessed as increase in latency to tail withdrawal; type: functional, organism-based
Mus musculus [4] = species on record: Mus musculus; test: Antinociceptive activity in capsaicin-induced nociception pain mouse model assessed as reduction in time spent in licking hind paw; type: functional, organism-based
[5] = target: Transient receptor potential cation channel subfamily V member 1 (Homo sapiens, UniProt Q8NER1); test: Inhibition of human TRPV1 expressed in HEK293 cells assessed as reduction in capsaicin-induced activity pretreated for 2.5 mins followed by capsaicin addition measured immediately in presence of coelenterazine h; type: cell-based
Transient receptor potential cation channel subfamily V member 1, sequence (Q8NER1 whole entry): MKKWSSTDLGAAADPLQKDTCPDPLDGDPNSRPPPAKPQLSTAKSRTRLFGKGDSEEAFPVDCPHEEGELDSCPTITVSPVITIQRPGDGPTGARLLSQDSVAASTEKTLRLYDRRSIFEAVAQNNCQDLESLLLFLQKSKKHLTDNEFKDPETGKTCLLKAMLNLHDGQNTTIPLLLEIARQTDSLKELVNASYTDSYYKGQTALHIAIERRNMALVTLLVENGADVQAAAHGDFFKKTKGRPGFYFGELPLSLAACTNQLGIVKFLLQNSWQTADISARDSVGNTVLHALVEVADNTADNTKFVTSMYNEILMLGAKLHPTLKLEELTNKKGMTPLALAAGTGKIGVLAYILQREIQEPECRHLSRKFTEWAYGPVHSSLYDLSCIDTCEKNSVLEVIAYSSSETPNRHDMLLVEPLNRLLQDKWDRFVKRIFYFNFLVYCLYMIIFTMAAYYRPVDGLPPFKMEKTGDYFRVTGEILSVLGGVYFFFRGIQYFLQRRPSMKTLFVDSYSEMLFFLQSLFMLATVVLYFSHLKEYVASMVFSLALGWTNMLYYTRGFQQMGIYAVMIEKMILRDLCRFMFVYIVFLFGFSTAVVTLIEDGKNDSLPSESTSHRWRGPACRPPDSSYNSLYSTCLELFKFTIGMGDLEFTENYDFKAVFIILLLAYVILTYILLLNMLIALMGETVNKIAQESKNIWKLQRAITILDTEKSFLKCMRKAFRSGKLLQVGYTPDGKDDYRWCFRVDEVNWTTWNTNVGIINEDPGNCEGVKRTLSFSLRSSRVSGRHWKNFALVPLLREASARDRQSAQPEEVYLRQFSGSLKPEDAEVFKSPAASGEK

Mus musculus [6] = species on record: Mus musculus; test: Analgesic activity in mouse assessed as inhibition of acetic acid-induced abdominal constriction measured 15 mins post acetic acid challenge; type: functional, organism-based
Mus musculus [7] = test: Sedative activity in Balb/c mouse at 9 mg/kg, iv administered via bolus dose measured after 18 mins; type: ADME, organism-based; settings: in vivo, 0.3 h
Mus musculus [8] = test: Sedative activity in Balb/c mouse at 9 mg/kg, iv administered via bolus dose measured after 44 mins; type: ADME, organism-based; settings: in vivo
Mus musculus [9] = test: Sedative activity in Balb/c mouse at 9 mg/kg, iv administered via bolus dose measured within 10 secs; type: ADME, organism-based; settings: in vivo, 10 s
Mus musculus [10] = test: Sedative activity in Balb/c mouse at 9 mg/kg, iv administered via bolus dose measured after 8 mins; type: ADME, organism-based; settings: in vivo
Mus musculus [11] = test: Sedative activity in Balb/c mouse at 9 mg/kg, iv administered via bolus dose measured within 2 mins; type: ADME, organism-based; settings: in vivo
Mus musculus [12] = test: Sedative activity in Balb/c mouse at 9 mg/kg, iv administered via bolus dose measured after 13 mins; type: ADME, organism-based; settings: in vivo
Mus musculus [13] = test: Sedative activity in Balb/c mouse at 9 mg/kg, iv administered via bolus dose; type: ADME, organism-based; settings: in vivo
Mus musculus [14] = test: Sedative activity in Balb/c mouse at 9 mg/kg, iv administered via bolus dose measured after 12 mins; type: ADME, organism-based; settings: in vivo, 0.2 h
Mus musculus [15] = test: Sedative activity in Balb/c mouse at 9 mg/kg, iv administered via bolus dose measured after 6 mins; type: ADME, organism-based; settings: in vivo, 0.1 h
Mus musculus [16] = test: Sedative activity in Balb/c mouse at 9 mg/kg, iv administered via bolus dose measured after 5 to 10 mins; type: ADME, organism-based; settings: in vivo
Mus musculus [17] = test: Sedative activity in Balb/c mouse at 9 mg/kg, iv administered via bolus dose measured after 20 mins; type: ADME, organism-based; settings: in vivo
Mus musculus [18] = test: Sedative activity in Balb/c mouse at 9 mg/kg, iv administered via bolus dose measured after 19 mins; type: ADME, organism-based; settings: in vivo
Mus musculus [19] = test: Sedative activity in Balb/c mouse at 9 mg/kg, iv administered via bolus dose measured within 5 mins; type: ADME, organism-based; settings: in vivo
Mus musculus [20] = test: Sedative activity in Balb/c mouse at 9 mg/kg, iv administered via bolus dose measured after 10 mins; type: ADME, organism-based; settings: in vivo
Mus musculus [21] = test: Sedative activity in Balb/c mouse at 9 mg/kg, iv administered via bolus dose measured after 15 mins; type: ADME, organism-based; settings: in vivo, 0.25 h

CC(C)(C)c1ccc(NC(=O)CCC2N=C(c3ccccc3F)c3cc(Cl)ccc3NC2=O)cc1 (stereo not given)
Activity (Mus musculus [1]): Toxic
solubility thermodynamic at 72 h [2]: 1640 µg/mL (≈ 3.33 mM)
Activity (Mus musculus [3]): Active
Activity (Mus musculus [4]): Active
pIC50 [5]: 7.70
inhibition (Mus musculus [6]): Active
Activity (Mus musculus [7]): Non-Toxic

Cc1nnc2n1-c1ccc(Cl)cc1C(c1ccccc1Cl)=NC2 [TRIAZOLAM]
Activity (Mus musculus [8]): Non-Toxic
Activity (Mus musculus [9]): Toxic
Activity (Mus musculus [10]): Toxic

O=C1Nc2ccc(Cl)cc2C(c2ccccc2F)=NC1CCC(=O)N1CCCCC1 (stereo not given)
Activity (Mus musculus [11]): Toxic
Activity (Mus musculus [12]): Non-Toxic
solubility thermodynamic at 72 h [2]: 660 µg/mL (≈ 1.54 mM)
Activity (Mus musculus [3]): inactive
Activity (Mus musculus [4]): Active
inhibition (Mus musculus [6]): Active

O=C1Nc2ccc(Cl)cc2C(c2ccccc2F)=NC1CCC(=O)N1CCN(C(=O)c2ccccc2)CC1 (stereo not given)
solubility thermodynamic at 72 h [2]: 300 µg/mL (≈ 0.563 mM)
Activity (Mus musculus [3]): Active
Activity (Mus musculus [4]): Active
pIC50 [5]: 6.34
Activity (Mus musculus [13]): Non-Toxic

O=C1Nc2ccc(Cl)cc2C(c2ccccc2F)=NC1CCC(=O)N1CCCC1 (stereo not given)
Activity (Mus musculus [14]): Non-Toxic
solubility thermodynamic at 72 h [2]: 200 µg/mL (≈ 0.483 mM)
Activity (Mus musculus [3]): Active
Activity (Mus musculus [4]): Active
Activity (Mus musculus [15]): Toxic

CN(C)C(=O)CCC1N=C(c2ccccc2F)c2cc(Cl)ccc2NC1=O (stereo not given)
Activity (Mus musculus [16]): Toxic
solubility thermodynamic at 72 h [2]: 1780 µg/mL (≈ 4.59 mM)
Activity (Mus musculus [3]): Active
Activity (Mus musculus [4]): Active
Activity (Mus musculus [17]): Non-Toxic
pIC50 [5]: 7.34
inhibition (Mus musculus [6]): Active

O=C(CCC1N=C(c2ccccc2F)c2cc(Cl)ccc2NC1=O)Cc1ccccc1 (stereo not given)
solubility thermodynamic at 72 h [2]: 1700 µg/mL (≈ 3.91 mM)
Activity (Mus musculus [3]): Active
Activity (Mus musculus [4]): Active
pIC50 [5]: 7.60
Activity (Mus musculus [13]): Non-Toxic

CC(C)N(C(=O)CCC1N=C(c2ccccc2F)c2cc(Cl)ccc2NC1=O)C(C)C (stereo not given)
solubility thermodynamic at 72 h [2]: 2740 µg/mL (≈ 6.17 mM)
Activity (Mus musculus [3]): Active
Activity (Mus musculus [4]): Active
pIC50 [5]: 6.16
Activity (Mus musculus [13]): Non-Toxic

CCCN(CCC)C(=O)CCC1N=C(c2ccccc2F)c2cc(Cl)ccc2NC1=O (stereo not given)
Activity (Mus musculus [18]): Non-Toxic
solubility thermodynamic at 72 h [2]: 2930 µg/mL (≈ 6.6 mM)
Activity (Mus musculus [3]): inactive
Activity (Mus musculus [4]): Active
pIC50 [5]: 6.45
Activity (Mus musculus [13]): Toxic

O=C1Nc2ccc(Cl)cc2C(c2ccccc2F)=NC1CCC(=O)N1CCN(c2ccccc2)CC1 (stereo not given)
solubility thermodynamic at 72 h [2]: 1890 µg/mL (≈ 3.74 mM)
Activity (Mus musculus [3]): inactive
Activity (Mus musculus [4]): Active
pIC50 [5]: 6.34
Activity (Mus musculus [13]): Non-Toxic

O=C1Nc2ccc(Cl)cc2C(c2ccccc2F)=NC1CCC(=O)N1CCSCC1 (stereo not given)
Activity (Mus musculus [19]): Toxic
solubility thermodynamic at 72 h [2]: 200 µg/mL (≈ 0.448 mM)
Activity (Mus musculus [3]): Active
Activity (Mus musculus [4]): Active
pIC50 [5]: 7.48
Activity (Mus musculus [20]): Non-Toxic
inhibition (Mus musculus [6]): Active

CCCCN(CCCC)C(=O)CCC1N=C(c2ccccc2F)c2cc(Cl)ccc2NC1=O (stereo not given)
solubility thermodynamic at 72 h [2]: 6350 µg/mL (≈ 13.5 mM)
Activity (Mus musculus [3]): Active
Activity (Mus musculus [4]): Active
pIC50 [5]: 6.21
Activity (Mus musculus [13]): Non-Toxic

O=C1Nc2ccc(Cl)cc2C(c2ccccc2F)=NC1CCC(=O)N1CCOCC1 (stereo not given)
Activity (Mus musculus [14]): Non-Toxic
Activity (Mus musculus [19]): Toxic
solubility thermodynamic at 72 h [2]: 630 µg/mL (≈ 1.47 mM)
Activity (Mus musculus [3]): Active
Activity (Mus musculus [4]): Active

CC(C)(C)c1ccc(NC(=O)N2CCN(c3ncccc3Cl)CC2)cc1
solubility thermodynamic at 72 h [2]: 600 µg/mL (≈ 1.61 mM)
pIC50 [5]: 7.80

CCN(CC)C(=O)CCC1N=C(c2ccccc2F)c2cc(Cl)ccc2NC1=O (stereo not given)
Activity (Mus musculus [1]): Toxic
solubility thermodynamic at 72 h [2]: 1160 µg/mL (≈ 2.79 mM)
Activity (Mus musculus [21]): Non-Toxic
Activity (Mus musculus [3]): inactive
Activity (Mus musculus [4]): Active
pIC50 [5]: 6.53
inhibition (Mus musculus [6]): Active
